The values below come from PubChem BioAssay AID1259407 (Chemical Carcinogenesis Research Information System (CCRIS), 2018).

The structures appear in SMILES notation. Calls of active or inactive are those of the source. The rule behind the calls is not given here.

The test system of the data set is CCRIS mutagenicity, Ames/micronucleus/aberration tests. The data set can be described thus: CCRIS mutagenicity studies.
The mark [1] stands for this setting: Test System: AMES SALMONELLA TYPHIMURIUM, Strain/Indicator: TA97, Metabolic Activation: NONE, Method: PREINCUBATION
The mark [2] stands for this setting: Test System: AMES SALMONELLA TYPHIMURIUM, Strain/Indicator: TA97, Metabolic Activation: RAT, LIVER, S-9, AROCLOR 1254, Method: PREINCUBATION
Where [3] appears, read: Test System: AMES SALMONELLA TYPHIMURIUM, Strain/Indicator: TA98, Metabolic Activation: NONE, Method: STANDARD PLATE.
Setting [4] is: Test System: AMES SALMONELLA TYPHIMURIUM, Strain/Indicator: TA100, Metabolic Activation: NONE, Method: PREINCUBATION
The mark [5] stands for this setting: Test System: AMES SALMONELLA TYPHIMURIUM, Strain/Indicator: TA100, Metabolic Activation: NONE, Method: STANDARD PLATE.
The mark [6] stands for this setting: Test System: AMES SALMONELLA TYPHIMURIUM, Strain/Indicator: TA100, Metabolic Activation: RAT, LIVER, S-9, AROCLOR 1254, Method: PREINCUBATION

With `O=P(O)(O)O`, the mutagenic call reads like this: (End Point: IN VITRO CHROMOSOMAL ABERRATIONS, Test System: CHO CELLS, Metabolic Activation: NONE) “inactive; negative”; (End Point: IN VITRO CHROMOSOMAL ABERRATIONS, Test System: CHO CELLS, Metabolic Activation: RAT, LIVER, S-9, AROCLOR 1254) “active; positive”; (Test System: AMES SALMONELLA TYPHIMURIUM, Strain/Indicator: TA97, Metabolic Activation: HAMSTER, LIVER, S-9, AROCLOR 1254, Method: PREINCUBATION) “inactive; negative”; under setting [1], “inactive; negative”; (Test System: AMES SALMONELLA TYPHIMURIUM, Strain/Indicator: TA97, Metabolic Activation: NONE, Method: STANDARD PLATE) “inactive; negative”; under setting [2], “inactive; negative”. Further, the mutagenic call (Test System: AMES SALMONELLA TYPHIMURIUM, Strain/Indicator: TA97, Metabolic Activation: RAT, LIVER, S-9, PHENOBARBITAL, Method: STANDARD PLATE) is “inactive; negative”; the mutagenic call (Test System: AMES SALMONELLA TYPHIMURIUM, Strain/Indicator: TA97, Metabolic Activation: S-9, Method: PREINCUBATION) is “inactive; negative”; the mutagenic call (Test System: AMES SALMONELLA TYPHIMURIUM, Strain/Indicator: TA98, Metabolic Activation: HAMSTER, LIVER, S-9, AROCLOR 1254, Method: PREINCUBATION) was “inactive; negative”; the mutagenic call (Test System: AMES SALMONELLA TYPHIMURIUM, Strain/Indicator: TA98, Metabolic Activation: NONE, Method: PREINCUBATION) was “inactive; negative”; the mutagenic call under setting [3] is “inactive; negative”; the mutagenic call (Test System: AMES SALMONELLA TYPHIMURIUM, Strain/Indicator: TA98, Metabolic Activation: RAT, LIVER, S-9, AROCLOR 1254, Method: PREINCUBATION) was “inactive; negative”. In addition, the mutagenic call (Test System: AMES SALMONELLA TYPHIMURIUM, Strain/Indicator: TA98, Metabolic Activation: RAT, LIVER, S-9, PHENOBARBITAL, Method: STANDARD PLATE) is “inactive; negative”; the mutagenic call (Test System: AMES SALMONELLA TYPHIMURIUM, Strain/Indicator: TA100, Metabolic Activation: HAMSTER, LIVER, S-9, AROCLOR 1254, Method: PREINCUBATION) is “inactive; negative”; the mutagenic call under setting [4] was “inactive; negative”; the mutagenic call under setting [5] is “inactive; negative”; the mutagenic call under setting [6] was “inactive; negative”; the mutagenic call (Test System: AMES SALMONELLA TYPHIMURIUM, Strain/Indicator: TA100, Metabolic Activation: RAT, LIVER, S-9, PHENOBARBITAL, Method: STANDARD PLATE) is “inactive; negative”. The mutagenic call reads like this: (Test System: AMES SALMONELLA TYPHIMURIUM, Strain/Indicator: TA102, Metabolic Activation: NONE, Method: PREINCUBATION) “inactive; negative”; (Test System: AMES SALMONELLA TYPHIMURIUM, Strain/Indicator: TA102, Metabolic Activation: RAT, LIVER, S-9, AROCLOR 1254, Method: PREINCUBATION) “inactive; negative”; (Test System: AMES SALMONELLA TYPHIMURIUM, Strain/Indicator: TA102, Metabolic Activation: S-9, Method: PREINCUBATION) “inactive; negative”; (Test System: AMES SALMONELLA TYPHIMURIUM, Strain/Indicator: TA104, Metabolic Activation: NONE, Method: STANDARD PLATE) “inactive; negative”; (Test System: AMES SALMONELLA TYPHIMURIUM, Strain/Indicator: TA104, Metabolic Activation: RAT, LIVER, S-9, PHENOBARBITAL, Method: STANDARD PLATE) “inactive; negative”; (Test System: AMES SALMONELLA TYPHIMURIUM, Strain/Indicator: TA1535, Metabolic Activation: NONE, Method: PREINCUBATION) “inactive; negative”. Moreover, the mutagenic call runs as follows: (Test System: AMES SALMONELLA TYPHIMURIUM, Strain/Indicator: TA1537, Metabolic Activation: HAMSTER, LIVER, S-9, AROCLOR 1254, Method: PREINCUBATION) “inactive; negative”; (Test System: AMES SALMONELLA TYPHIMURIUM, Strain/Indicator: TA1537, Metabolic Activation: NONE, Method: PREINCUBATION) “inactive; negative”; (Test System: AMES SALMONELLA TYPHIMURIUM, Strain/Indicator: TA1537, Metabolic Activation: RAT, LIVER, S-9, AROCLOR 1254, Method: PREINCUBATION) “inactive; negative”.
As for `CCC(=O)N=c1sn(C(=O)CC)c2ccc([N+](=O)[O-])cc12`, where the note is “Test System: AMES SALMONELLA TYPHIMURIUM, Strain/Indicator: TA100, Metabolic Activation: S-9, Method: STANDARD PLATE”, the mutagenic call is “active; positive”.
With `Cc1cn([C@H]2C[C@H](O)[C@@H](CO)O2)c(=O)[nH]c1=O`, the mutagenic call was “inactive; negative” under setting [1]; “inactive; negative” under setting [2]; “inactive; negative” under setting [4]; “inactive; negative” under setting [6]; “inactive; negative” (Test System: CHINESE HAMSTER V-79, Strain/Indicator: V-79 (HPRT)/6-THIOGUANINE, Metabolic Activation: NONE, Method: STANDARD PLATE); “active; positive” (Test System: CHINESE HAMSTER V-79, Strain/Indicator: V-79/6-THIOGUANINE, Metabolic Activation: NONE, Method: STANDARD PLATE). In addition, where the note is “Test System: CHINESE HAMSTER V-79, Strain/Indicator: V-79/8-AZAGUANINE, Metabolic Activation: NONE”, the mutagenic call was “inactive; negative”.
As to `COCC=O`, the mutagenic call reads like this: (Test System: AMES SALMONELLA TYPHIMURIUM, Strain/Indicator: TA97A, Metabolic Activation: NONE, Method: STANDARD PLATE) “active; positive”; (Test System: AMES SALMONELLA TYPHIMURIUM, Strain/Indicator: TA97A, Metabolic Activation: RAT, LIVER, S-9, AROCLOR 1254, Method: STANDARD PLATE) “active; positive”; under setting [3], “inactive; negative”; (Test System: AMES SALMONELLA TYPHIMURIUM, Strain/Indicator: TA98, Metabolic Activation: RAT, LIVER, S-9, AROCLOR 1254, Method: STANDARD PLATE) “inactive; negative”; under setting [5], “inactive; negative”; (Test System: AMES SALMONELLA TYPHIMURIUM, Strain/Indicator: TA100, Metabolic Activation: RAT, LIVER, S-9, AROCLOR 1254, Method: STANDARD PLATE) “inactive; negative”. For the same molecule, the mutagenic call is, setting by setting: (Test System: AMES SALMONELLA TYPHIMURIUM, Strain/Indicator: TA102, Metabolic Activation: NONE, Method: STANDARD PLATE) “inactive; negative”; (Test System: AMES SALMONELLA TYPHIMURIUM, Strain/Indicator: TA102, Metabolic Activation: RAT, LIVER, S-9, AROCLOR 1254, Method: STANDARD PLATE) “inactive; negative”; (Test System: CHINESE HAMSTER OVARY, Strain/Indicator: CHO AS52 (GPT)/6-THIOGUANINE, Metabolic Activation: NONE) “active; positive”; (Test System: CHINESE HAMSTER OVARY, Strain/Indicator: CHO-AS52/6-THIOGUANINE, Metabolic Activation: NONE) “active; positive”; (Test System: CHINESE HAMSTER OVARY, Strain/Indicator: CHO-K1-BH4 (HGPRT)/6-THIOGUANINE, Metabolic Activation: NONE) “inactive; negative”; (Test System: CHINESE HAMSTER OVARY, Strain/Indicator: CHO-K1-BH4 (HGPRT)/6-THIOGUANINE, Metabolic Activation: RAT, LIVER, S-9, AROCLOR 1254) “inactive; negative”. Also, where the note is “Test System: CHINESE HAMSTER V-79, Strain/Indicator: V-79 (HPRT)/6-THIOGUANINE, Metabolic Activation: NONE”, the mutagenic call is “active; positive”.
Regarding `CC/C=C/C=C/C=C/C=C/C=C\OC[C@@H](O)CO`, the mutagenic call by setting is: under setting [4], “active; positive”; under setting [6], “active; positive”.
